Laboratory results taken from US20250214991A1 (Oncopia Therapeutics, Inc. d/b/a/ SK Life Science Labs, priority 2022, published 2025).

How the values were obtained:
CRBN/DDB1 = CRBN/DDB1 (Homo sapiens (Human), UniProt Q96SW2); assay: IC50 measurements for binding to CRBN/DDB1 (HTRF); conditions: His tagged CRBN+DDB, Cy5-labeled Thalidomide probe, one hour
How it was run: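 HTRF competition binding with 2 nM His-tagged CRBN-DDB1 complex, 60 nM Cy5-thalidomide probe and 0.4 nM anti-His Tb cryptate in 50 mM HEPES pH 7.5, 1 mM TCEP, 0.01% Brij-35, 50 mM NaCl, 0.1% BSA. Read after 1 h at room temperature; IC50 from four-parameter dose-response fit.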

IKZF2 [1] = molecular target: T1, IKZF2 (Homo sapiens (Human), UniProt Q96SW2+Q9UKS7); assay: In vitro IKZF2 Western Blot Assay in Jurkat cells; assay type: cell-based; conditions: 24 hrs; for inhibition at 0.001 µM: read-out: IKZF2 degradation (%) @ μM 0.001; for inhibition at 0.01 µM: read-out: IKZF2 degradation (%) @ μM 0.01; for inhibition at 0.1 µM: read-out: IKZF2 degradation (%) @ μM 0.1; for inhibition at 1 µM: read-out: IKZF2 degradation (%) @ μM 1; for inhibition at 10 µM: read-out: IKZF2 degradation (%) @ μM 10
T1 sequence (Q9UKS7 whole entry): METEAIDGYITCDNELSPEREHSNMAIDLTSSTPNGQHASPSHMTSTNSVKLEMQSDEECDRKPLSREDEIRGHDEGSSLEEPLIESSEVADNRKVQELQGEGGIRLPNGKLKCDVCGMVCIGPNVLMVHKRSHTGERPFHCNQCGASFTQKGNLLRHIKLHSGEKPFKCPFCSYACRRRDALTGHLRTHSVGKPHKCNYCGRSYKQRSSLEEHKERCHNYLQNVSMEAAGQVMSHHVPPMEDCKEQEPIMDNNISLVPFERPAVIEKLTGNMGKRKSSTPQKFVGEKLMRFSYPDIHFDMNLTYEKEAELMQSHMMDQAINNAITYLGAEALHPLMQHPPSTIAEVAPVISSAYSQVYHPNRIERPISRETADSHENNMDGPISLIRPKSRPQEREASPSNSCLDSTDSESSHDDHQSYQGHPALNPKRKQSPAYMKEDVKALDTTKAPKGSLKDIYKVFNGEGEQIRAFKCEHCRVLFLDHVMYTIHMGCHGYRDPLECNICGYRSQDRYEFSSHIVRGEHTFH
T1 sequence (Q96SW2 whole entry): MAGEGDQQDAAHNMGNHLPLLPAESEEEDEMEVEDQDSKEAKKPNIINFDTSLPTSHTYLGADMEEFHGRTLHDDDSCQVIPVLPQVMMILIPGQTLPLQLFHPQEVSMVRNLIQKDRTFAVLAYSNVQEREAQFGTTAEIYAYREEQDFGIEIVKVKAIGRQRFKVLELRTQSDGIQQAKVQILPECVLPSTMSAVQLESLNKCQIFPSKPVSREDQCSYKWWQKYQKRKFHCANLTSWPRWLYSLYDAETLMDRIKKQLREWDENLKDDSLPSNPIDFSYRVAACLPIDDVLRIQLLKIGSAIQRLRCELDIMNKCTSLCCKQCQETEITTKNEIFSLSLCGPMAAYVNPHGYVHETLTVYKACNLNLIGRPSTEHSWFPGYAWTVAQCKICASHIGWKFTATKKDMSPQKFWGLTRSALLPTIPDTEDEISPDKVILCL
T1 sequence (Q16531 2-1140 partner): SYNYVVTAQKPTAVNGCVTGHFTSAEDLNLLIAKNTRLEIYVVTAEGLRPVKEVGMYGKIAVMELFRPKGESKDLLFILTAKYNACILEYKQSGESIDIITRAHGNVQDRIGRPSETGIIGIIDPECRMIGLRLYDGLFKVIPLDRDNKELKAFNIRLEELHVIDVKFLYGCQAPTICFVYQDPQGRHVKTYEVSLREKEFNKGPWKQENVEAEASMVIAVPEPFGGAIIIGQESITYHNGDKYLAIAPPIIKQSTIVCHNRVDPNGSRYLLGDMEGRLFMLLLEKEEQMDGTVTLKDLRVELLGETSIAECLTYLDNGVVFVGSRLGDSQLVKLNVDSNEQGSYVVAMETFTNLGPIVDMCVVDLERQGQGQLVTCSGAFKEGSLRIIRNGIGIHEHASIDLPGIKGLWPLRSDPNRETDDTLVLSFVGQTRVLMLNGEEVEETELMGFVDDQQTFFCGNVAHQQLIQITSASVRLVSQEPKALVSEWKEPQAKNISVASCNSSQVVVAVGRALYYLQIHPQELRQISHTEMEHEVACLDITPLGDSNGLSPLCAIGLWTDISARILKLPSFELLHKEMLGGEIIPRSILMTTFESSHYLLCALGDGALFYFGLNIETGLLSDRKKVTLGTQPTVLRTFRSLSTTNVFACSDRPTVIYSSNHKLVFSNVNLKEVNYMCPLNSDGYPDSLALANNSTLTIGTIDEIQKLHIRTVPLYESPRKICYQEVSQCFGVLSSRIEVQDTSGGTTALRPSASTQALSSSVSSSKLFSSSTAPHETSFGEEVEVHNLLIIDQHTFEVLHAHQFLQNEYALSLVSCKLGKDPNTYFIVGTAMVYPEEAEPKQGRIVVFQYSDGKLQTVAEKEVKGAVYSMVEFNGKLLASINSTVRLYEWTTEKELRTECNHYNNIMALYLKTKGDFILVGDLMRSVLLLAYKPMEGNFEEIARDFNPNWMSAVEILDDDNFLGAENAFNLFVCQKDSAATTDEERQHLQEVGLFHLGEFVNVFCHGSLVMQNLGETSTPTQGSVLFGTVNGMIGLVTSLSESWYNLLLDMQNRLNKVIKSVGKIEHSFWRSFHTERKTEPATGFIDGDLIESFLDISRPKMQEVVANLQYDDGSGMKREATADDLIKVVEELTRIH
Method: In vitro IKZF2 Western Blot Assay Jurkat cells (ATCC, Cat #HB-8065) were cultured in RPMI1640+10% FBS+1% P/S. Cells were treated at desired compound concentrations (0.001, 0.01, 0.1, 1, and 10 μM) and DMSO as vehicle control for 24 hrs. After 24 hr of treatment cells were collected by centrifugation and lysed in RIPA lysis buffer on ice for 10 min. After assessing protein concentration by BCA assay (Pierce), equal amounts of protein for each sample were loaded into 4-12% Bis-Tris gels (Invitrogen), transferred to PVDF membranes and immunoblotted with antibodies against IKZF2 and Actin (Cell Signaling). Membranes were developed on an Odyssey detection system (LI-COR Biosciences) after incubation with IRDye800-labeled goat anti-rabbit IgG and IRDye680-labeled goat anti-mouse IgG (LI-COR) secondary antibodies. Band intensities were quantified using ImageStudio software. Data was further analyzed using XLfit. Percentage of IKZF2 protein degradation: A (>50%); B (30-50%); C(<30%) (Table 2).

IKZF2 [2] = molecular target: T1, IKZF2; assay: In vitro IKZF2 HiBit Assay (HEK293T Flp-in-HiBiT cells); assay type: cell-based; conditions: HEK293T Flp-in-HiBiT cells, 6 hrs incubation; for DC50: read-out: IKZF2 HiBit DC50; for Dmax: HEK-293T, read-out: IKZF2 HiBit Dmax (%)
How it was run: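 HEK293T Flp-in cells carrying an endogenous N-terminal HiBiT tag on IKZF2 were exposed to compound for 6 h at 0.1% DMSO. The dilution series was 11 doses at 3-fold, diluted from 1 mM. Nano-Glo HiBiT lytic luminescence, normalized to DMSO, gave DC50 for 50% degradation and Dmax across the concentration range, both reported in letter bins.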

IKZF1 = IKZF1 (Homo sapiens (Human), UniProt Q13422+Q96SW2); assay: In vitro IKZF1 HiBit Assay (HEK293T Flp-in-HiBiT-IKZF1 stable cell line); assay type: cell-based; conditions: HEK293T Flp-in-HiBiT-IKZF1 stable cell line, 6 hrs incubation; for DC50: read-out: IKZF1 HiBit DC50; for Dmax: HEK-293T, read-out: IKZF1 HiBit Dmax (%)
Chain of IKZF1 (Q13422 whole entry): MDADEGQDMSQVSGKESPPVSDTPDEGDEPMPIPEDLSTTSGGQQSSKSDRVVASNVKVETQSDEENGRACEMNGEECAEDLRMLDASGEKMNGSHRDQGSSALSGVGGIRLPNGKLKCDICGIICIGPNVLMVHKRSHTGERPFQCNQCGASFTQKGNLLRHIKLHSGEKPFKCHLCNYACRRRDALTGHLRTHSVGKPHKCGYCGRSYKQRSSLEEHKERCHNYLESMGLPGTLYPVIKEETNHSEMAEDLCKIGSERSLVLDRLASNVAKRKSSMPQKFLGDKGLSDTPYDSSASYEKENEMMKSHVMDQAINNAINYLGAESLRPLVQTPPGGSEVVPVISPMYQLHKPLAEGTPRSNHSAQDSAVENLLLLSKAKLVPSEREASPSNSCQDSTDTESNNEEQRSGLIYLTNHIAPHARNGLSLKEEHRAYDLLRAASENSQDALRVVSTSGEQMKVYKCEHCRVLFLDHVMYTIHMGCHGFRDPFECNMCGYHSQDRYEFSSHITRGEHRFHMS
Chain of IKZF1 (Q96SW2 whole entry): as the sequence (Q96SW2 whole entry) above
Chain of IKZF1 (Q16531 2-1140 partner): as the sequence (Q16531 2-1140 partner) above
How it was run: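 HEK293T Flp-in cells carrying N-terminal HiBiT-tagged IKZF1 were exposed to compound (0.1% DMSO) for 6 h at 3000 cells/well. HiBiT luminescence was read after lytic LgBiT detection. DC50 and Dmax were taken from DMSO-normalized dose-response curves.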

IKZF2 [3] = molecular target: T1, IKZF2; assay: In vitro IKZF2 FACS Assay in Jurkat cells; assay type: cell-based; conditions: 24 hrs; for DC50: half maximal degradation concentration; for Dmax: maximal degradation percentage
Method: In vitro IKZF2 FACS Assay
DC50, A: <1 nM; B: 1-10 nM; C: 10-100 nM; D: 100-1000 nM; E: >1000 nM. Dmax, A: >80%; B: 60-80%; C: 40-60%; D: 20-40%; E: <20%.

Chain of CRBN/DDB1 (Q96SW2 whole entry, species assumed): as the sequence (Q96SW2 whole entry) above
Chain of CRBN/DDB1 (Q16531 whole entry partner, species assumed): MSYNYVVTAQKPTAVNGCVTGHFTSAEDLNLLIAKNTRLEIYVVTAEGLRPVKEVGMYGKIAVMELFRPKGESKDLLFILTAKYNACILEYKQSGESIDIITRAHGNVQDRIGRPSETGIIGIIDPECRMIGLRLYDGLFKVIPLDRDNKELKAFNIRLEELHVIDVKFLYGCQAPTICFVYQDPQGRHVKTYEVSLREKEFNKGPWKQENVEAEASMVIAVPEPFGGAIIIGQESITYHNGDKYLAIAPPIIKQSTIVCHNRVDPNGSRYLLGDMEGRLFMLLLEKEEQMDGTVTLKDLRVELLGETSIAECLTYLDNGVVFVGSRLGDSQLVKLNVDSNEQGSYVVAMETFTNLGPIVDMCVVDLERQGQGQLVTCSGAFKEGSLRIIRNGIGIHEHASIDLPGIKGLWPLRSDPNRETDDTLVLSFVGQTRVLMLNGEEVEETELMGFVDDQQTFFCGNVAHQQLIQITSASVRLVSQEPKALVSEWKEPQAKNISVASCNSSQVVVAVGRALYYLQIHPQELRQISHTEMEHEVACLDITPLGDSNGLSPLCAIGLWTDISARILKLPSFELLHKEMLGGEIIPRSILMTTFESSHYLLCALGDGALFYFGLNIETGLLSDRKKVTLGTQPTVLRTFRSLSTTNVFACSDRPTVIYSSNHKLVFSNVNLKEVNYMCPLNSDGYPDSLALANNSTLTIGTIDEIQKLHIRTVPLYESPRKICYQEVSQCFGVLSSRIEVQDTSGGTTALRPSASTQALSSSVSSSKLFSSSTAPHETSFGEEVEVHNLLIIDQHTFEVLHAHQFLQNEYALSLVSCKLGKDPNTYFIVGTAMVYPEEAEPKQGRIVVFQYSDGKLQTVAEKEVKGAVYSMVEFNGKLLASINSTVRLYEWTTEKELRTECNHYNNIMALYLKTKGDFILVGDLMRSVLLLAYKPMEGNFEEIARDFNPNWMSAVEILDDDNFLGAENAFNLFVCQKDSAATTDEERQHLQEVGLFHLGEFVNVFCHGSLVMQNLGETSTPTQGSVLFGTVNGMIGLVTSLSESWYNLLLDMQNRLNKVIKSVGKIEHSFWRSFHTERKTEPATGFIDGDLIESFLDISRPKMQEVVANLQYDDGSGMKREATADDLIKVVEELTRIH

| Compound | IC50 (CRBN/DDB1) | inhibition at 0.001 µM (IKZF2 [1]) | inhibition at 0.01 µM (IKZF2 [1]) | inhibition at 0.1 µM (IKZF2 [1]) | inhibition at 1 µM (IKZF2 [1]) | inhibition at 10 µM (IKZF2 [1]) | DC50 (IKZF2 [2]) | Dmax (IKZF2 [2]) | DC50 (IKZF1) | Dmax (IKZF1) | DC50 (IKZF2 [3]) | Dmax (IKZF2 [3]) |
| --- | --- | --- | --- | --- | --- | --- | --- | --- | --- | --- | --- | --- |
| O=C1CCC(N2Cc3cc(-c4cc(CN5CC(c6ccccc6)C5)cn5ccnc45)ccc3C2=O)C(=O)N1 (centres unmarked) [Example 48, 3-(1-oxo-5-(6-((3-phenylazetidin-1-yl)methyl)imidazo[1,2-a]pyridin-8-yl)isoindolin-2-yl) piperidine-2,6-dione] | < 100 nM | < 30% | < 30% | < 30% | < 30% | < 30% | – | – | – | – | – | – |
| O=C1CCC(N2Cc3cc(-c4cc(CN5CCCC5c5ccccc5)cn5ccnc45)ccc3C2=O)C(=O)N1 (centres unmarked) [Example 49, 3-(1-oxo-5-(6-((2-phenylpyrrolidin-1-yl)methyl)imidazo[1,2-a]pyridin-8-yl)isoindolin-2-yl) piperidine-2,6-dione] | 100 to 500 nM | < 30% | < 30% | < 30% | < 30% | < 30% | – | – | – | – | – | – |
| O=C1CCC(N2Cc3cc(-c4cc(CNCCc5c(F)cccc5F)cn5ccnc45)ccc3C2=O)C(=O)N1 (centres unmarked) [Example 39, 3-(5-(6-(((2,6-difluorophenethyl)amino)methyl)imidazo[1,2-a]pyridin-8-yl)-1-oxoisoindolin-2-yl) piperidine-2,6-dione] | < 100 nM | < 30% | < 30% | < 30% | < 30% | < 30% | – | – | – | – | – | – |
| O=C1CCC(N2Cc3cc(-c4cc(CN5CCC(F)(F)CC5)cn5ccnc45)ccc3C2=O)C(=O)N1 (centres unmarked) [Example 35, 3-(5-(6-((4,4-difluoropiperidin-1-yl)methyl)imidazo[1,2-a]pyridin-8-yl)-1-oxoisoindolin-2-yl) piperidine-2,6-dione] | 100 to 500 nM | < 30% | < 30% | < 30% | < 30% | < 30% | – | – | – | – | – | – |
| O=C1CCC(N2Cc3cc(-c4cc(CNCCc5ccccc5C(F)(F)F)cn5ccnc45)ccc3C2=O)C(=O)N1 (centres unmarked) [Example 43] | < 100 nM | < 30% | < 30% | < 30% | < 30% | < 30% | – | – | – | – | – | – |
| O=C1CCC(N2Cc3cc(-c4cc(CN5CCC5)cn5ccnc45)ccc3C2=O)C(=O)N1 (centres unmarked) [Example 34, 3-(5-(6-(azetidin-1-ylmethyl)imidazo[1,2-a]pyridin-8-yl)-1-oxoisoindolin-2-yl) piperidine-2,6-dione] | < 100 nM | 30 to 50% | 30 to 50% | > 50% | > 50% | > 50% | – | – | – | – | – | – |
| CC1(C)CCN(Cc2cc(-c3ccc4c(c3)CN(C3CCC(=O)NC3=O)C4=O)c3nccn3c2)CC1 (centres unmarked) [Example 36, 3-(5-(6-((4,4-dimethylpiperidin-1-yl)methyl)imidazo[1,2-a]pyridin-8-yl)-1-oxoisoindolin-2-yl) piperidine-2,6-dione] | 100 to 500 nM | 30 to 50% | 30 to 50% | < 30% | < 30% | < 30% | – | – | – | – | – | – |
| O=C1CCC(N2Cc3cc(-c4cc(CN5CCC(c6ccccc6)CC5)cn5ccnc45)ccc3C2=O)C(=O)N1 (centres unmarked) [Example 47, 3-(1-oxo-5-(6-((4-phenylpiperidin-1-yl)methyl)imidazo[1,2-a]pyridin-8-yl)isoindolin-2-yl) piperidine-2,6-dione] | < 100 nM | 30 to 50% | 30 to 50% | < 30% | < 30% | < 30% | – | – | – | – | – | – |
| CC(NCc1cc(-c2ccc3c(c2)CN(C2CCC(=O)NC2=O)C3=O)c2nccn2c1)c1ccccc1 (centres unmarked) [Example 45, 3-(1-oxo-5-(6-(((1-phenylethyl)amino)methyl)imidazo[1,2-a]pyridin-8-yl)isoindolin-2-yl) piperidine-2,6-dione] | 100 to 500 nM | 30 to 50% | < 30% | < 30% | > 50% | < 30% | – | – | – | – | – | – |
| O=C1CCC(N2Cc3cc(-c4cc(CN5CCCC5c5ccccc5)cc5cncn45)ccc3C2=O)C(=O)N1 (centres unmarked) [Example 26, 3-(1-oxo-5-(7-((2-phenylpyrrolidin-1-yl)methyl)imidazo[1,5-a]pyridin-5-yl)isoindolin-2-yl) piperidine-2,6-dione] | 100 to 500 nM | < 30% | < 30% | 30 to 50% | 30 to 50% | 30 to 50% | – | – | – | – | – | – |
| O=C1CCC(N2Cc3cc(-c4cc(CNCc5ccccc5Cl)cn5ccnc45)ccc3C2=O)C(=O)N1 (centres unmarked) [Example 38, 3-(5-(6-(((2-chlorobenzyl)amino)methyl)imidazo[1,2-a]pyridin-8-yl)-1-oxoisoindolin-2-yl) piperidine-2,6-dione] | 100 to 500 nM | < 30% | < 30% | < 30% | < 30% | < 30% | – | – | – | – | – | – |
| O=C1CCC(N2Cc3cc(-c4cc(CNCCc5c(Cl)cccc5Cl)cn5ccnc45)ccc3C2=O)C(=O)N1 (centres unmarked) [Example 41, 3-(5-(6-(((2,6-dichlorophenethyl)amino)methyl)imidazo[1,2-a]pyridin-8-yl)-1-oxoisoindolin-2-yl) piperidine-2,6-dione] | 100 to 500 nM | < 30% | < 30% | < 30% | < 30% | < 30% | – | – | – | – | – | – |
| O=C1CCC(N2Cc3cc(-c4cc(CN5CCC(C(F)(F)F)CC5)cn5ccnc45)ccc3C2=O)C(=O)N1 (centres unmarked) [Example 37, 3-(1-oxo-5-(6-((4-(trifluoromethyl)piperidin-1-yl)methyl)imidazo[1,2-a]pyridin-8-yl)isoindolin-2-yl) piperidine-2,6-dione] | < 100 nM | < 30% | < 30% | < 30% | < 30% | < 30% | – | – | – | – | – | – |
| CC(C)(NCc1cc(-c2ccc3c(c2)CN(C2CCC(=O)NC2=O)C3=O)c2nccn2c1)c1ccccc1 (centres unmarked) [Example 46, 3-(1-oxo-5-(6-(((2-phenylpropan-2-yl)amino)methyl)imidazo[1,2-a]pyridin-8-yl)isoindolin-2-yl) piperidine-2,6-dione] | 100 to 500 nM | < 30% | < 30% | 30 to 50% | > 50% | > 50% | – | – | – | – | – | – |
| O=C1CCC(N2Cc3cc(-c4cc(CN5CCC(CO)CC5)c5ccn(C6COC6)c5n4)ccc3C2=O)C(=O)N1 (centres unmarked) [Example 163, 3-(5-(4-((4-(hydroxymethyl)piperidin-1-yl)methyl)-1-(oxetan-3-yl)-1H-pyrrolo[2,3-b]pyridin-6-yl)-1-oxoisoindolin-2-yl) piperidine-2,6-dione] | 100 to 500 nM | – | – | – | – | – | 1 to 10 nM | 60 to 80% | 100 to 1000 nM | 20 to 40% | 1 to 10 nM | > 80% |
| O=C1CCC(N2Cc3cc(-c4cc(CN5CCCC5)c5ccn(C6CS(=O)(=O)C6)c5n4)ccc3C2=O)C(=O)N1 (centres unmarked) [Example 176, 3-(5-(1-(1,1-dioxidothietan-3-yl)-4-(pyrrolidin-1-ylmethyl)-1H-pyrrolo[2,3-b]pyridin-6-yl)-1-oxoisoindolin-2-yl) piperidine-2,6-dione] | 500 to 1000 nM | – | – | – | – | – | 1 to 10 nM | > 80% | 10 to 100 nM | 20 to 40% | 1 to 10 nM | 60 to 80% |
